Results from patent publication US20240350432A1, “CENTRAL NERVOUS SYSTEM MODULATORS AS COVID-19 THERAPEUTICS” (priority 2023, published 2024).
“Also recorded” adds a separate entry of the source.

Key:
SARS-CoV-2, Beta variant [1] = type: in vivo; settings: COVID-19 positive mice; for body weight nonlinear regression, Best fit / body weight as percent of baseline weight over time: 10 mg/kg I.P. BID, 10 day group; for body weight as percent of baseline weight over time: 10 mg/kg
SARS-CoV-2, Beta variant [2] = tested on: SARS-CoV-2, Beta variant; parameters: species or system mice; settings: mouse, in vivo, ip, 10 mg/kg

| Structure (SMILES) | body weight nonlinear regression, Best fit (SARS-CoV-2, Beta variant [1]) | body weight as percent of baseline weight over time (SARS-CoV-2, Beta variant [1]) | survival outcome (SARS-CoV-2, Beta variant [2]) | body weight nonlinear regression, Slope 1 (SARS-CoV-2, Beta variant [1]; Segmental Line fit) | body weight nonlinear regression, Slope2 (SARS-CoV-2, Beta variant [1]; Segmental Line fit) | body weight nonlinear regression, X0 (SARS-CoV-2, Beta variant [1]; Segmental Line fit) |
| --- | --- | --- | --- | --- | --- | --- |
| CC12CC3CC(C)(C1)CC(N)(C3)C2 [memantine] | Horizontal Line | appear to reduce observable signs of disease; also recorded: little to no fluctuation in body weight | good survival; also recorded: significantly improved survival outcome | – | – | – |
| CC(C(O)c1ccc(O)cc1)N1CCC(Cc2ccccc2)CC1 (stereo not drawn) [ifenprodil] | Segmental Line | appear to reduce observable signs of disease; also recorded: reduction in body weight starting around day 5; also recorded: body weight returned to normal levels by day 10 post-inoculation | some protective effect | -0.8076 | 0.8604 | 6 |
